From ChEMBL document CHEMBL6182898, “Design, synthesis and bioevaluation of novel hydrazide derivatives as enhancers of immunotherapy and DNA-damage response in antitumor therapy” (Eur J Med Chem, 2025)
Active and inactive are the calls of the source. No cut-off for these calls is given here.

Experiments:
SK-OV-3 [1] = assay: cells; assay type: functional; conditions: Homo sapiens, time 72 hrs
4T1 [2] = assay: cells; assay type: functional; conditions: Mus musculus, time 72 hrs
HCT-116 [3] = assay: cells; assay type: functional; conditions: Homo sapiens, time 72 hrs
B16-F10 [4] = assay: cells; assay type: functional; conditions: Mus musculus, time 72 hrs
K562 [5] = assay: cells; assay type: functional; conditions: Homo sapiens, time 72 hrs
4T1 [6] = assay: Antiproliferative activity against mouse 4T1 cells incubated for 72 hrs by MTT assay; assay type: functional, cell-based; conditions: 4T1, 72 h
SK-OV-3 [7] = assay: Antiproliferative activity against human SK-OV-3 cells incubated for 72 hrs by MTT assay; assay type: functional, cell-based; conditions: SK-OV-3, 72 h
HCT-116 [8] = assay: Antiproliferative activity against human HCT-116 cells incubated for 72 hrs by MTT assay; assay type: functional, cell-based; conditions: HCT-116, 72 h
B16-F10 [9] = assay: Antiproliferative activity against mouse B16-F10 cells incubated for 72 hrs by MTT assay; assay type: functional, cell-based; conditions: B16-F10, 72 h
K562 [10] = assay: Antiproliferative activity against human K562 cells incubated for 72 hrs by CCK8 assay; assay type: functional, cell-based; conditions: K562, 72 h
[11] = Antiproliferative activity against human HK-2 cells incubated for 72 hrs by MTT assay
Histone deacetylase 1 = Histone deacetylase 1 (Homo sapiens, UniProt Q13547); assay: Inhibition of HDAC1 (unknown origin)
Chain of Histone deacetylase 1 (Q13547 whole entry): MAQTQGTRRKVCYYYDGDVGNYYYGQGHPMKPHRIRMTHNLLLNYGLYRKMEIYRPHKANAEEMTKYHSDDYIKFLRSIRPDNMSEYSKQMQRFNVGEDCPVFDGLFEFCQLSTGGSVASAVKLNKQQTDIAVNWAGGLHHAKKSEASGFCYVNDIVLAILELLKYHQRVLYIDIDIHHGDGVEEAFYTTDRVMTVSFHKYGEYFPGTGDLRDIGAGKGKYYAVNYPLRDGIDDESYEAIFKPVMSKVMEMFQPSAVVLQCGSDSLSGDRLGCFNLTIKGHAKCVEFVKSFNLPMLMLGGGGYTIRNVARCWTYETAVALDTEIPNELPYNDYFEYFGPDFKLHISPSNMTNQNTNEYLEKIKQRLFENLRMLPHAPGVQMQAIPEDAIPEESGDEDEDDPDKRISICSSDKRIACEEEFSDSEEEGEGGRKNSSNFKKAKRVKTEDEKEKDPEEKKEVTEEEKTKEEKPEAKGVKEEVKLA

Histone deacetylase 3 = Histone deacetylase 3 (Homo sapiens, UniProt O15379); assay: Inhibition of HDAC3 (unknown origin)
Chain of Histone deacetylase 3 (O15379 whole entry): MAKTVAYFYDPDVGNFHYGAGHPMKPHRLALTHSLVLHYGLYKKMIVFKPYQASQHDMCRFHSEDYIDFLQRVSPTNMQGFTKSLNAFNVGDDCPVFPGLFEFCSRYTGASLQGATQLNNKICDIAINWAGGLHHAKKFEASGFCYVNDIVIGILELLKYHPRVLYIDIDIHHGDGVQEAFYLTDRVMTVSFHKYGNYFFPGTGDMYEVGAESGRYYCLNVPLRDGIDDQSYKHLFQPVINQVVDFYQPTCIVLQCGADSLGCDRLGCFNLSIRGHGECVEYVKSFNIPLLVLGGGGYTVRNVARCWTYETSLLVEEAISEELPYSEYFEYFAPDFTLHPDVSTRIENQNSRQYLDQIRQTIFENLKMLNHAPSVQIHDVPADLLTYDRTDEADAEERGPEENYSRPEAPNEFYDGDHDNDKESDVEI

[12] = biological target: T1, Protein deacetylase HDAC6 (Homo sapiens, UniProt Q9UBN7); assay: Inhibition of HDAC6 (unknown origin)
T1 sequence (Q9UBN7 whole entry): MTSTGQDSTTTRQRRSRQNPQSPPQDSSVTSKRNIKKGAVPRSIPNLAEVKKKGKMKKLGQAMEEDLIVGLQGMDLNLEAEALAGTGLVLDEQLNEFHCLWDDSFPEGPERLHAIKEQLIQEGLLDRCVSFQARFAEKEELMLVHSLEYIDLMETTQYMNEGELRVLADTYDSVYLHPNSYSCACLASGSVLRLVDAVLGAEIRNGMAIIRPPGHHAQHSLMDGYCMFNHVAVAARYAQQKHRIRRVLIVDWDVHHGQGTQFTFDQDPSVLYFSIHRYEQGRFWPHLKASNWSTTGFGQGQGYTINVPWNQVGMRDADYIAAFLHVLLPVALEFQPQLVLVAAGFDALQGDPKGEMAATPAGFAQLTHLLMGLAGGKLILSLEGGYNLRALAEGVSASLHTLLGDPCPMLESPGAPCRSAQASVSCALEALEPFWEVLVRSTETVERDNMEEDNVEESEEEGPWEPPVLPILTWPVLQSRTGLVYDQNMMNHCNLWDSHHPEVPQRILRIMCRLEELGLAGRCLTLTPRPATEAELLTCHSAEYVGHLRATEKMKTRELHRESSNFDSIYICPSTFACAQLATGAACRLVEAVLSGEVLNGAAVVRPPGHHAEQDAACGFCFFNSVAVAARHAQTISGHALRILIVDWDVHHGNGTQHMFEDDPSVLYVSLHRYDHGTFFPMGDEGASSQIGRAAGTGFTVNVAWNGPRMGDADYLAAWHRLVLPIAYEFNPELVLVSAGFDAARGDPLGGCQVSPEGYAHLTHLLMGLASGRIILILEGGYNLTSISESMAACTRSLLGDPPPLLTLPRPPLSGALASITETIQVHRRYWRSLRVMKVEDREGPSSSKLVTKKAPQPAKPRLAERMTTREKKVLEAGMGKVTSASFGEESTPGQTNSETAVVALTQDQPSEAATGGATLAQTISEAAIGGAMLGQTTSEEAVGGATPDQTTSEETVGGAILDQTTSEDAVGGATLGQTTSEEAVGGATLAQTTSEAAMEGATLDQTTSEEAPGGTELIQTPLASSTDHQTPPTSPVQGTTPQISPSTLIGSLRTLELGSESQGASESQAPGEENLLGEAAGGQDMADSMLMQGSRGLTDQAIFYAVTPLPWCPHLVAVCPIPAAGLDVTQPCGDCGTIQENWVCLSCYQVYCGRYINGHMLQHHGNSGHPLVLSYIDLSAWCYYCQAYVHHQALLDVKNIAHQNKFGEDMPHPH

Histone deacetylase 8 = biological target: T2, Histone deacetylase 8 (Homo sapiens, UniProt Q9BY41); assay: Inhibition of HDAC8 (unknown origin)
T2 sequence (Q9BY41 whole entry): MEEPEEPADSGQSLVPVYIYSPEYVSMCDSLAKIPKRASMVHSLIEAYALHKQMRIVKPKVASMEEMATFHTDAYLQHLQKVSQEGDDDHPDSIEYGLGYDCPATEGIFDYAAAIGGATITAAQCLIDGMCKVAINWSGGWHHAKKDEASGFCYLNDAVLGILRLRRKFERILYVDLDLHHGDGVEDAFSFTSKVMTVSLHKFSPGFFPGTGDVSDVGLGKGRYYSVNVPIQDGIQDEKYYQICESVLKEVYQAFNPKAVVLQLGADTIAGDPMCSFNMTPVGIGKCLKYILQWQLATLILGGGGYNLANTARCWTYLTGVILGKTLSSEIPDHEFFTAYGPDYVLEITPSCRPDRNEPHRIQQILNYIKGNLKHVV

4T1 [13] = assay: Induction of DNA damage in mouse 4T1 cells assessed as decrease in PARP1 level at 2 uM incubated for 24 hrs by Western blot analysis; assay type: functional, cell-based
4T1 [14] = assay: Synergistic induction of DNA damage in mouse 4T1 cells assessed as decrease in PARP1 level at 1 uM incubated for 24 hrs in presence of Olaparib by Western blot analysis; assay type: functional, cell-based
4T1 [15] = assay: Induction of DNA damage in mouse 4T1 cells assessed as increase in gamma-H2AX level at 2 uM incubated for 24 hrs by Western blot analysis; assay type: functional, cell-based
4T1 [16] = assay: Synergistic induction of DNA damage in mouse 4T1 cells assessed as increase in gamma-H2AX level at 1 uM incubated for 24 hrs in presence of Olaparib by Western blot analysis; assay type: functional, cell-based
4T1 [17] = assay: Induction of DNA damage in mouse 4T1 cells assessed as decrease in PARP1 level at 5 uM by immunofluorescence based analysis; assay type: functional, cell-based
4T1 [18] = assay: Induction of DNA damage in mouse 4T1 cells assessed as increase in gamma-H2AX level at 5 uM by immunofluorescence based analysis; assay type: functional, cell-based
B16-F10 [19] = assay: Induction of antitumor immunity in mouse B16-F10 cells implanted in male C57BL/6J mouse assessed as CD3+CD4+ T cell infiltration at 50 mg/kg, IG treated for 14 days consecutively by flow cytometry (reference value: 7.4 %); assay type: functional; conditions: time 14 day
B16-F10 [20] = assay: Induction of antitumor immunity in mouse B16-F10 cells implanted in male C57BL/6J mouse assessed as CD3+CD8+ T cell infiltration at 50 mg/kg, IG treated for 14 days consecutively by flow cytometry (reference value: 10 %); assay type: functional; conditions: time 14 day
[21] = biological target: T3, Histone deacetylase 3 (Mus musculus) (UniProt O88895); assay: In vivo inhibition of HDAC3 in mouse B16-F10 cells implanted in male C57BL/6J mouse assessed as increase in Ac-H3 level at 50 mg/kg, IG treated for 14 days consecutively by Western blot analysis; assay type: functional, organism-based; conditions: time 14.0 day
T3 sequence (whole entry): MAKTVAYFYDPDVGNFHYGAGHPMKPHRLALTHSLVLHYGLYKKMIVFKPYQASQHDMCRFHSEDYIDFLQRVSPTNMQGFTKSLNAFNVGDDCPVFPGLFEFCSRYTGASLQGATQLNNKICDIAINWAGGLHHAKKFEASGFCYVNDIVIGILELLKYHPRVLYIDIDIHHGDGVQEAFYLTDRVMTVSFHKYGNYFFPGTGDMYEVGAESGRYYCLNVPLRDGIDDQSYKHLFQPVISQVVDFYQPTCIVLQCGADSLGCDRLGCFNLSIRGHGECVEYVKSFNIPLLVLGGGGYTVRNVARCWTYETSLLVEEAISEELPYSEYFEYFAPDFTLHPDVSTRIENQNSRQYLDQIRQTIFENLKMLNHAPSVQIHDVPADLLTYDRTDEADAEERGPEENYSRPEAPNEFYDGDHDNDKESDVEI

[22] = biological target: T3, Histone deacetylase 3 (Mus musculus); assay: In vivo inhibition of HDAC3 in mouse B16-F10 cells implanted in male C57BL/6J mouse assessed as decrease in PD-L1 level at 50 mg/kg, IG treated for 14 days consecutively by Western blot analysis; assay type: functional, organism-based; conditions: time 14.0 day
Mus musculus = assay: Effect on Ac-alpha-tubulin in mouse B16-F10 cells implanted in male C57BL/6J mouse at 50 mg/kg, IG treated for 14 days consecutively by Western blot analysis; assay type: functional, organism-based; conditions: time 14.0 day
[23] = biological target: T3, Histone deacetylase 3 (Mus musculus); assay: In vivo inhibition of HDAC3 in mouse B16-F10 cells implanted in male C57BL/6J mouse assessed as increase in Ac-H3 level at 50 mg/kg, IG treated for 14 days consecutively by immunofluorescence based analysis; assay type: functional, organism-based; conditions: time 14.0 day

SMILES	inhibition at 10 µM (SK-OV-3 [1]) [%]	inhibition at 10 µM (4T1 [2]) [%]	inhibition at 10 µM (HCT-116 [3]) [%]	inhibition at 10 µM (B16-F10 [4]) [%]	inhibition at 10 µM (K562 [5]) [%]	IC50 (4T1 [6]) [µM]	IC50 (SK-OV-3 [7]) [µM]	IC50 (HCT-116 [8]) [µM]	IC50 (B16-F10 [9]) [µM]	IC50 (K562 [10]) [µM]	IC50 at 72 h [11] [µM]	IC50 (Histone deacetylase 1) [µM]	IC50 (Histone deacetylase 3) [µM]	IC50 [12] [µM]	IC50 (Histone deacetylase 8) [µM]	also measured
CCCNNC(=O)CCCCCNC(=O)c1cnc(-c2ccc(Oc3ccccc3)cc2)s1	68.6	33.8	82.6	< 50	73.1	10.5	4.43	3.38	11.1	7.68	10.8	> 5	1.6	> 10	> 10	
CCCNNC(=O)CCCCCCNC(=O)c1cnc(-c2ccc(F)cc2F)s1	82.1	< 20	79.7	56	70.5	12.9	7.9	4.77	4.74	5.65	12.2	0.89	0.73	> 10	> 10	
CCCNNC(=O)c1ccc(NC(=O)c2cnc(-c3cc4ccc5cccc6ccc(c3)c4c56)s2)cc1	77.5	< 20	69.3	61.7	< 50	8.02	5.22	8.42	13.1	6.05	11.2	1.36	0.97	> 10	> 10	
O=C(CCCCCCC(=O)Nc1ccccc1)NO [VORINOSTAT]																Activity (4T1 [13]): Active; Activity (4T1 [14]): Active; Activity (4T1 [15]): Active; Activity (4T1 [16]): Active; Activity (4T1 [17]): Active; Activity (4T1 [18]): Active; Activity (B16-F10 [19]): 18%; Activity (B16-F10 [20]): 17%; inhibition [21]: Active; inhibition [22]: Active; Activity (Mus musculus): No effect; inhibition [23]: Active
